Assay results reported in US20260232767A1, “INTERLEUKIN-23 RECEPTOR ANTAGONIST PEPTIDES FOR USE IN THE TREATMENT OF PSORIASIS” (Janssen Pharmaceutica NV, priority 2023, published 2026).

Test system: subjects with moderate-to-severe plaque psoriasis
Assay: PASI response, Example 2 long-term extension to Week 52
Format: in vivo, human
Conditions: for Change from Baseline in PASI Total Score, LSMean: MMRM model; for Subjects achieving 100% Improvement at Week 52 (PASI) / Subjects achieving ≥75% Improvement at Week 52 (PASI 75 Response) / Subjects achieving ≥90% Improvement at Week 52 (PASI): non-responder imputation
Source text: Described below is a multicenter, long-term extension (LTE), double-blind, dose-ranging, parallel group interventional study in participants from Example 1 to evaluate the long-term efficacy and safety of the hydrochloride salt of the compound of Formula (I) for the treatment of moderate-to-severe plaque psoriasis. Patients from Example 1 continued to receive the same dose of the compound of Formula (I) for an additional 36-week treatment period with a 4-week safety follow up period after the last administration of the compound of Formula (I). Patients randomized to placebo in Example 1 received the compound of Formula (I) at a dose of 100 mg QD starting at Week 16 of Example 1 (FIG. 21).
The primary efficacy endpoint is the proportion of participants achieving a PASI 75 response at Week 52, defined as at least a […] reduction from baseline PASI of Example 1. For primary analysis, composite strategy (non-responder imputation) was applied to address intercurrent event #1 (Discontinuation of study intervention due to lack of efficacy or due to an AE of worsening of psoriasis) and […] (initiation of a protocol-prohibited medication or therapy that could improve psoriasis); treatment policy strategy (observed data) was applied to intercurrent event #3 (Discontinuation of study intervention due to other reasons). Participants with missing data after application of ICEs are considered as non-responders.
Since there was no control arm (after week 16), in this primary analysis, only the proportion of participants who achieved a PASI75 response and its […] confidence interval at Week 52 were summarized for each intervention group.

CC(=O)NCCCC[C@@H]1NC(=O)[C@H](Cc2c[nH]c3c(C)cccc23)NC(=O)[C@H]([C@@H](C)O)NC(=O)[C@H](CC(N)=O)NC(=O)[C@@H](NC(C)=O)C(C)(C)SSC(C)(C)[C@@H](C(=O)N[C@@H](Cc2ccc(OCCN)cc2)C(=O)N[C@@H](Cc2ccc3ccccc3c2)C(=O)NC2(C(=O)N[C@@H](CCC(=O)O)C(=O)N[C@@H](CC(N)=O)C(=O)N[C@@H](Cc3cccnc3)C(=O)N(C)CC(N)=O)CCOCC2)NC1=O [IL-23 receptor antagonist peptide, Ac-[Pen]*-N-T-[W(7-Me)]-[Lys(Ac)]-[Pen]*-Phe[4-(2-aminoethoxy)]-[2-Nal]-[THP]-E-N-[3-Pal]-Sarc-NH2 (*[Pen]-[Pen]* formdisulfidebond)]
Change from Baseline in PASI Total Score, Mean (25 mg BID, Week 1): −1.20 | Change from Baseline in PASI Total Score, Median (25 mg BID, Week 1): −0.80 | Change from Baseline in PASI Total Score, LSMean (25 mg BID, Week 1): −1.4 | Change from Baseline in PASI Total Score, Mean (25 mg BID, Week 2): −3.65 | Change from Baseline in PASI Total Score, Median (25 mg BID, Week 2): −3.20 | Change from Baseline in PASI Total Score, LSMean (25 mg BID, Week 2): −3.8 | Change from Baseline in PASI Total Score, Mean (25 mg BID, Week 4): −6.26 | Change from Baseline in PASI Total Score, Median (25 mg BID, Week 4): −6.30 | Change from Baseline in PASI Total Score, LSMean (25 mg BID, Week 4): −6.7 | Change from Baseline in PASI Total Score, Mean (25 mg BID, Week 8): −9.72 | Change from Baseline in PASI Total Score, Median (25 mg BID, Week 8): −9.90 | Change from Baseline in PASI Total Score, LSMean (25 mg BID, Week 8): −10.2 | Change from Baseline in PASI Total Score, Mean (25 mg BID, Week 12): −11.46 | Change from Baseline in PASI Total Score, Median (25 mg BID, Week 12): −12.30 | Change from Baseline in PASI Total Score, LSMean (25 mg BID, Week 12): −11.9 | Change from Baseline in PASI Total Score, Mean (25 mg BID, Week 16): −12.73 | Change from Baseline in PASI Total Score, Median (25 mg BID, Week 16): −12.70 | Change from Baseline in PASI Total Score, LSMean (25 mg BID, Week 16): −13.0 | Change from Baseline in PASI Total Score, Mean (25 mg BID, Week 20): −13.50 | Change from Baseline in PASI Total Score, Median (25 mg BID, Week 20): −13.60 | Change from Baseline in PASI Total Score, LSMean (25 mg BID, Week 20): −13.7 | Change from Baseline in PASI Total Score, Mean (25 mg BID, Week 24): −13.64 | Change from Baseline in PASI Total Score, Median (25 mg BID, Week 24): −13.55 | Change from Baseline in PASI Total Score, LSMean (25 mg BID, Week 24): −13.5 | Change from Baseline in PASI Total Score, Mean (25 mg BID, Week 28): −14.33 | Change from Baseline in PASI Total Score, Median (25 mg BID, Week 28): −14.40 | Change from Baseline in PASI Total Score, LSMean (25 mg BID, Week 28): −14.5 | Change from Baseline in PASI Total Score, Mean (25 mg BID, Week 32): −14.36 | Change from Baseline in PASI Total Score, Median (25 mg BID, Week 32): −14.30 | Change from Baseline in PASI Total Score, LSMean (25 mg BID, Week 32): −14.6 | Change from Baseline in PASI Total Score, Mean (25 mg BID, Week 40): −13.58 | Change from Baseline in PASI Total Score, Median (25 mg BID, Week 40): −14.10 | Change from Baseline in PASI Total Score, LSMean (25 mg BID, Week 40): −13.9 | Change from Baseline in PASI Total Score, Mean (25 mg BID, Week 52): −13.24 | Change from Baseline in PASI Total Score, Median (25 mg BID, Week 52): −13.75 | Subjects achieving PASI 75 (25 mg BID, Week 52): 24 (28.5%) | Change from Baseline in PASI Total Score, LSMean (25 mg BID, Week 52): −13.6 | Subjects achieving 100% Improvement at Week 52 (PASI) (25 mg BID, Week 52): (17.1%) | Subjects achieving ≥75% Improvement at Week 52 (PASI 75 Response) (25 mg BID, Week 52): 24 (58.5%) | Subjects achieving ≥90% Improvement at Week 52 (PASI) (25 mg BID, Week 52): (36.6%) | Change from Baseline in PASI Total Score, Mean (25 mg QD, Week 1): −2.25 | Change from Baseline in PASI Total Score, Median (25 mg QD, Week 1): −0.80 | Change from Baseline in PASI Total Score, LSMean (25 mg QD, Week 1): −2.4 | Change from Baseline in PASI Total Score, Mean (25 mg QD, Week 2): −4.50 | Change from Baseline in PASI Total Score, Median (25 mg QD, Week 2): −4.00 | Change from Baseline in PASI Total Score, LSMean (25 mg QD, Week 2): −4.5 | Change from Baseline in PASI Total Score, Mean (25 mg QD, Week 4): −6.50 | Change from Baseline in PASI Total Score, Median (25 mg QD, Week 4): −5.60 | Change from Baseline in PASI Total Score, LSMean (25 mg QD, Week 4): −6.7 | Change from Baseline in PASI Total Score, Mean (25 mg QD, Week 8): −9.39 | Change from Baseline in PASI Total Score, Median (25 mg QD, Week 8): −7.70 | Change from Baseline in PASI Total Score, LSMean (25 mg QD, Week 8): −9.5 | Change from Baseline in PASI Total Score, Mean (25 mg QD, Week 12): −10.71 | Change from Baseline in PASI Total Score, Median (25 mg QD, Week 12): −9.20 | Change from Baseline in PASI Total Score, LSMean (25 mg QD, Week 12): −10.8 | Change from Baseline in PASI Total Score, Mean (25 mg QD, Week 16): −12.76 | Change from Baseline in PASI Total Score, Median (25 mg QD, Week 16): −12.20 | Change from Baseline in PASI Total Score, LSMean (25 mg QD, Week 16): −12.0 | Change from Baseline in PASI Total Score, Mean (25 mg QD, Week 20): −14.01 | Change from Baseline in PASI Total Score, Median (25 mg QD, Week 20): −13.70 | Change from Baseline in PASI Total Score, LSMean (25 mg QD, Week 20): −13.2 | Change from Baseline in PASI Total Score, Mean (25 mg QD, Week 24): −13.56 | Change from Baseline in PASI Total Score, Median (25 mg QD, Week 24): −14.30 | Change from Baseline in PASI Total Score, LSMean (25 mg QD, Week 24): −12.8 | Change from Baseline in PASI Total Score, Mean (25 mg QD, Week 28): −13.35 | Change from Baseline in PASI Total Score, Median (25 mg QD, Week 28): −14.60 | Change from Baseline in PASI Total Score, LSMean (25 mg QD, Week 28): −13.3 | Change from Baseline in PASI Total Score, Mean (25 mg QD, Week 32): −14.06 | Change from Baseline in PASI Total Score, Median (25 mg QD, Week 32): −15.50 | Change from Baseline in PASI Total Score, LSMean (25 mg QD, Week 32): −13.6 | Change from Baseline in PASI Total Score, Mean (25 mg QD, Week 40): −13.70 | Change from Baseline in PASI Total Score, Median (25 mg QD, Week 40): −15.25 | Change from Baseline in PASI Total Score, LSMean (25 mg QD, Week 40): −13.1 | Change from Baseline in PASI Total Score, Mean (25 mg QD, Week 52): −13.55 | Change from Baseline in PASI Total Score, Median (25 mg QD, Week 52): −14.55 | Subjects achieving PASI 75 (25 mg QD, Week 52): 21 (48.8%) | Change from Baseline in PASI Total Score, LSMean (25 mg QD, Week 52): −12.9 | Subjects achieving 100% Improvement at Week 52 (PASI) (25 mg QD, Week 52): (14.0%) | Subjects achieving ≥75% Improvement at Week 52 (PASI 75 Response) (25 mg QD, Week 52): 21 (48.8%) | Subjects achieving ≥90% Improvement at Week 52 (PASI) (25 mg QD, Week 52): (27.9%) | Change from Baseline in PASI Total Score, Mean (50 mg QD, Week 1): −3.10 | Change from Baseline in PASI Total Score, Median (50 mg QD, Week 1): −1.80 | Change from Baseline in PASI Total Score, LSMean (50 mg QD, Week 1): −3.1 | Change from Baseline in PASI Total Score, Mean (50 mg QD, Week 2): −5.74 | Change from Baseline in PASI Total Score, Median (50 mg QD, Week 2): −4.30 | Change from Baseline in PASI Total Score, LSMean (50 mg QD, Week 2): −5.7 | Change from Baseline in PASI Total Score, Mean (50 mg QD, Week 4): −8.25 | Change from Baseline in PASI Total Score, Median (50 mg QD, Week 4): −7.85 | Change from Baseline in PASI Total Score, LSMean (50 mg QD, Week 4): −8.2 | Change from Baseline in PASI Total Score, Mean (50 mg QD, Week 8): −11.41 | Change from Baseline in PASI Total Score, Median (50 mg QD, Week 8): −11.85 | Change from Baseline in PASI Total Score, LSMean (50 mg QD, Week 8): −11.3 | Change from Baseline in PASI Total Score, Mean (50 mg QD, Week 12): −12.96 | Change from Baseline in PASI Total Score, Median (50 mg QD, Week 12): −14.25 | Change from Baseline in PASI Total Score, LSMean (50 mg QD, Week 12): −12.8 | Change from Baseline in PASI Total Score, Mean (50 mg QD, Week 16): −14.56
